Assay results published in patent US12295936B2, “Immunomodulating urea azalides” (Zoetis Services LLC, priority 2020, dated 2025).
Like-named read-outs stand apart in the source and are kept apart here.

What was measured:
IL-1β = assay: LPS-stimulated whole bovine blood assay, MSD cytokine detection; assay type: cell-based; conditions: overstimulation of IL-1β, LPS-stimulated bovine whole blood
Protocol: (§1) The effect of multiple cytokines was not easily quantified using single cell types. Therefore, a fresh whole bovine blood assay was developed with LPS as a stimulant (TLR-4 agonist) and with IL-1β and TNF-α as the read-out. Compounds of the invention were evaluated against a positive control for their ability to inhibit LPS-induced IL-1β and TNF-α as an overall evaluation of relative potency and modulation of target pathways (Table 6).
(§2) In order to correlate RNA sequencing data to cytokine changes the whole blood assay was utilized. […] The enhancement result represents an overall stimulation of cytokine levels due to cellular stress or potential toxicity with increasing concentrations of the compound, representing a typical bell shape response curve for immunomodulatory activity.
In the bovine whole blood in vitro screening assay the inhibition of TNFα as induced by stimulation by lipopolysaccharide (LPS) and as measured by half the maximal inhibitory concentration (IC50) is recognized as the primary biomarker of immunomodulation potency upon pretreatment with the compounds of the invention.

IL-6 = assay: as above; assay type: cell-based; conditions: Bos taurus, LPS-stimulated bovine whole blood; read-out: IL-6 (IC50 μM)
Text: as §2

TNF-α = assay: as above; assay type: cell-based; conditions: Bos taurus, LPS-stimulated bovine whole blood; read-out: TNF-α (IC50 μM)
Protocol: as §1, with “Therefore,” for “The effect of multiple cytokines was not easily quantified using single cell types. Therefore,”
In the bovine whole blood in vitro screening assay the inhibition of TNFα as induced by stimulation by lipopolysaccharide (LPS) and as measured by half the maximal inhibitory concentration (IC50) is recognized as the primary biomarker of immunomodulation potency upon pretreatment with the compounds of the invention. IL-1β is a mediator of the inflammation response and is involved in a number of cellular activities including proliferation, differentiation and apoptosis. IL-1β is also released upon cellular stress or cytotoxicity or upon TLR stimulation. In the bovine whole blood assay the stimulation of IL-1β release upon increasing concentration of test compound is seen as a potential cellular toxicity signal as induced by the test compound. In order to estimate a therapeutic index from the in vitro assay a differential between the TNFα IC50 (immunomodulation potency) versus the perceived cellular toxicity concentration (IL-1β release or overstimulation) was utilized.

[1] = test system: BRD pathogens, M. haemolytica and P. multocida; assay: MIC screening panel of BRD pathogens (antibacterial / non-antibacterial)
[2] = read-out: antibacterial / non-antibacterial (MIC for the BRD pathogens)

Row | IC50 (IL-6) [µM] | IC50 (TNF-α) [µM] | SMILES | IL-1β OS of LPS (IL-1β) [µM] | MIC [1, 2] [µg/mL] | MIC ([1]; read-out: MIC ≤64 μg/mL for at least one of the bacterial strains (flag * at Ex #)) [µg/mL]
1 | 193 | – | CCNC[C@]1(O)[C@H](C)O[C@@H](O[C@H]2[C@H](C)[C@@H](O[C@@H]3O[C@H](C)C[C@H](N(C)C(=O)N(C)c4ccccc4)[C@H]3O)[C@](C)(O)C[C@@H](C)CN[C@H](C)[C@@H](O)[C@](C)(O)[C@@H](CC)OC(=O)[C@@H]2C)C[C@@]1(C)OC [Example H-23, 1-((2S,3R,4S,6R)-2-(((2R,3S,4R,5R,8R,10R,11R,12S,13S,14R)-2-ethyl-13-(((2R,4R,5S,6S)-5-((ethylamino)methyl)-5-hydroxy-4-methoxy-4,6-dimethyltetrahydro-2H-pyran-2-yl)oxy)-3,4,10-trihydroxy-3,5,8,10,12,14-hexamethyl-15-oxo-1-oxa-6-azacyclopentadecan-11-yl)oxy)-3-hydroxy-6-methyltetrahydro-2H-pyran-4-yl)-1,3-dimethyl-3-phenylurea] | 100 | – | –
2 | – | 60 | CC[C@H]1OC(=O)[C@H](C)[C@@H](O[C@H]2C[C@@](C)(OC)[C@](O)(CN3Cc4nccnc4C3)[C@H](C)O2)[C@H](C)[C@@H](O[C@@H]2O[C@H](C)C[C@H](N(C)C(=O)N(C)c3ccccc3)[C@H]2O)[C@](C)(O)C[C@@H](C)CN[C@H](C)[C@@H](O)[C@]1(C)O [Example J-16, 1-((2S,3R,4S,6R)-2-(((2R,3S,4R,5R,8R,10R,11R,12S,13S,14R)-13-(((2R,4R,5S,6S)-5-((5,7-dihydro-6H-pyrrolo[3,4-b]pyrazin-6-yl)methyl)-5-hydroxy-4-methoxy-4,6-dimethyltetrahydro-2H-pyran-2-yl)oxy)-2-ethyl-3,4,10-trihydroxy-3,5,8,10,12,14-hexamethyl-15-oxo-1-oxa-6-azacyclopentadecan-11-yl)oxy)-3-hydroxy-6-methyltetrahydro-2H-pyran-4-yl)-1,3-dimethyl-3-phenylurea] | 40 | > 64 | –
3 | – | 19 | CC[C@H]1OC(=O)[C@H](C)[C@@H](O[C@H]2C[C@@](C)(OC)[C@](O)(CN3CC(N4CCCCC4)C3)[C@H](C)O2)[C@H](C)[C@@H](O[C@@H]2O[C@H](C)C[C@H](N(C)C(=O)N(C)c3ccccc3)[C@H]2O)[C@](C)(O)C[C@@H](C)CN[C@H](C)[C@@H](O)[C@]1(C)O [Example J-19, 1-((2S,3R,4S,6R)-2-(((2R,3S,4R,5R,8R,10R,11R,12S,13S,14R)-2-ethyl-3,4,10-trihydroxy-13-(((2R,4R,5S,6S)-5-hydroxy-4-methoxy-4,6-dimethyl-5-((3-(piperidin-1-yl)azetidin-1-yl)methyl)tetrahydro-2H-pyran-2-yl)oxy)-3,5,8,10,12,14-hexamethyl-15-oxo-1-oxa-6-azacyclopentadecan-11-yl)oxy)-3-hydroxy-6-methyltetrahydro-2H-pyran-4-yl)-1,3-dimethyl-3-phenylurea] | 16 | > 64 | –
4 | – | 6 | CC[C@H]1OC(=O)[C@H](C)[C@@H](O[C@H]2C[C@@](C)(OC)[C@](O)(CN3CCc4ccccc4C3)[C@H](C)O2)[C@H](C)[C@@H](O[C@@H]2O[C@H](C)C[C@H](N(C)C(=O)N(C)c3ccccc3)[C@H]2O)[C@](C)(O)C[C@@H](C)CN[C@H](C)[C@@H](O)[C@]1(C)O [Example J-25, 1-((2S,3R,4S,6R)-2-(((2R,3S,4R,5R,8R,10R,11R,12S,13S,14R)-13-(((2R,4R,5S,6S)-5-((3,4-dihydroisoquinolin-2(1H)-yl)methyl)-5-hydroxy-4-methoxy-4,6-dimethyltetrahydro-2H-pyran-2-yl)oxy)-2-ethyl-3,4,10-trihydroxy-3,5,8,10,12,14-hexamethyl-15-oxo-1-oxa-6-azacyclopentadecan-11-yl)oxy)-3-hydroxy-6-methyltetrahydro-2H-pyran-4-yl)-1,3-dimethyl-3-phenylurea] | 16 | – | < 64
